Common to all, as to type: cell-based, human
The subject of assay [1] is SH-SY5Y. In words: WST-1 viability assay, SH-SY5Y cells. Conditions: 72 h incubation, WST-1, four replicates. On the procedure: (§1) Based on the novelty of the IMBcat compound, we aimed to evaluate its in vitro cytotoxicity in selected model cell lines as well as to determine the toxicity of the IBMcat enantiomers, since both the chemical structure and chirality of compounds could play a role in their bioactivity (Table 2). The cytotoxic profile of the IBMcat was determined by a WST-1 viability assay after 72-h treatment. For this purpose, cell lines derived from distinct tissues, often affected by NPSs, were chosen, i.e., cells of kidney, hepatic, neural, urinary, and intestinal origin as well as keratinocytes and primary fibroblasts (HEK 293T, Hep G2, HMC-3, SH-SY5Y, 5637, CaCo-2, HaCaT, MRC-5, and BJ, respectively). The cytotoxicity of IBMcat and its enantiomers was concentration- and cell-line dependent, the IC50 values, which were in the micromolar range, are given in Table 2. […] This was followed by embryonic kidney cells HEK 293T (immortalized), in which the toxicity ranged between a concentration of 123 and 192 µM.
(§2) In this study, the following cell lines were used: HEK 293T, Hep G2, HMC-3, SH-SY5Y, 5637, CaCo-2, HaCaT, MRC-5, BJ, and L929. […] The selected cell lines were chosen so that not only primary noncancerous cells are evaluated but also cells derived from tissues, which are the most often affected by novel synthetic drugs, i.e., kidney, liver, urinary bladder, and nervous tissue. […]
(§3) The cytotoxicity of IBMCat was evaluated in vitro by using a WST-1 viability assay (Sigma-Aldrich, Saint Louis, MO, USA) based on the transformation of a tetrazolium salt into colored formazan in metabolically active cells. […] After 72 h of additional incubation of the cells, their viability was determined by WST-1. […] The cells were incubated for 2 h, after which absorbance of the raised formazan was measured spectrophotometrically at 450 nm (reference wavelength of 630 nm) using a UV-Vis spectrometer (Bio-Rad Laboratories, Hercules, CA, USA). […] The half-maximal inhibitory concentrations (IC50) were calculated from the measured dose–response curves by AAT Bioquest.

In assay [2] the test system is MRC-5. The assay is described as follows: WST-1 viability assay, MRC-5 cells. As to conditions: MRC-5, 72 h incubation, WST-1, four replicates. On the procedure:
as §1, §2, §3
In general terms: Tetrazolium assays rely on reduction of a dye to a coloured formazan, in cell work by metabolically active cells.

Assay [3] deals with BJ. In words: WST-1 viability assay, BJ cells. As to conditions: 72 h incubation, WST-1, four replicates. How it is done:
as §1, §2, §3

Structures can show the parent of a compound that is named as a salt.

A word on the IC50: it is the concentration that inhibits the measured activity by half. Low values mean inhibition by little substance, high ones a need for much substance.

Consider `CNC(C)C(=O)c1ccc(CC(C)C)cc1.Cl` (stereo not drawn) [IBMcat, 4-isobutylmethcathinone hydrochloride], for which the IC50 came out at 44 ± 5 µM in assay [1] (Homo sapiens); 635 ± 17 µM in assay [2] (Homo sapiens, MRC5); 749 ± 102 µM in assay [3] (Homo sapiens).
On to `CN[C@H](C)C(=O)c1ccc(CC(C)C)cc1` [R-IBMCat], for which the IC50 worked out at 52 ± 4 µM in assay [1], 515 ± 34 µM in assay [2] and 698 ± 88 µM in assay [3].
In the case of `CN[C@@H](C)C(=O)c1ccc(CC(C)C)cc1` [S-IBMCat, (S)-4-isobutylmethcathinone hydrochloride], the IC50 in assay [1] (Homo sapiens) came out at 50 ± 1 µM; in assay [2] (Homo sapiens, MRC5) it was 530 ± 35 µM; in assay [3] (Homo sapiens), 685 ± 41 µM.
